Measurements reported in publication PMC5368057, “Structural, thermodynamic, and phosphatidylinositol 3‐phosphate binding properties of Phafin2” (Protein Science : A Publication of the Protein Society, 2017).

Biological target: T1, Phafin2 (Homo sapiens, UniProt Q9H8W4)
T1 construct: gene PLEKHF2; full length (PH and FYVE domains; C-terminal tryptic peptide 224-249), pGEX4T3 GST fusion, GST removed by thrombin; N-terminus Gly-Ser-Met-Val-Asp (Gly-Ser from vector); E. coli Rosetta; 27,941 Da; monomer
T1 sequence (Q9H8W4 1-249): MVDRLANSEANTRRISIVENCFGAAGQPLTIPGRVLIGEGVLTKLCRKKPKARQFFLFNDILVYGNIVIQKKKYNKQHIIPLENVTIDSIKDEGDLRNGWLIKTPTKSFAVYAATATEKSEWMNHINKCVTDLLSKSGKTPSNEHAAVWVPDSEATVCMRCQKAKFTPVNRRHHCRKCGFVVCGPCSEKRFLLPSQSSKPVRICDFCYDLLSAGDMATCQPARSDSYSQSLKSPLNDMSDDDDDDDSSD
Assay: SPR, liposomes on L1 chip, two-state conformational change fit
Type: binding
Settings: 1.5% lipid in phosphatidylcholine (DOPC) liposomes, control liposomes without it; liposome buffer 20 mM HEPES pH 7.0, 100 mM NaCl; room temperature; apparent

CCCCCCCCCCCCCCCC(=O)OC[C@H](COP(=O)(O)O[C@@H]1[C@H](O)[C@H](OP(=O)(O)O)[C@@H](O)[C@H](O)[C@H]1O)OC(=O)CCCCCCCCCCCCCCC [dipalmitoyl PtdIns(3)P]
Kd: 0.285 ± 0.08 µM
